Tested on: mdx mice
Assay: Dosing of metabolic and endocrine biomarkers in serum and tissues, mdx mice, 4-week daily or weekly prednisone
Type: in vivo
Conditions: 4-week treatment, mean ± s.e.m
Protocol: Animal handling and steroid regimens. Mice were housed in a pathogen-free dedicated vivarium in accordance with Institutional Animal Care and Use Committee (IACUC) guidelines. Euthanasia was performed through carbon dioxide inhalation followed by cervical dislocation and heart removal. All methods using living animals in this study were performed in ethical accordance with the American Veterinary Medical Association (AVMA) and under protocols fully approved by both the Institutional Animal Care and Use Committee (IACUC) at Northwestern University Feinberg School of Medicine (protocol number ISO00000761). Consistent with the ethical approvals, all efforts were made to minimize suffering. Mice were fed ad libitum with Mouse Breeder Sterilizable Diet (#7904; Harlan Teklad, Indianapolis, Ind.) and maintained on a 12-hour light/dark cycle. mdx mice from the DBA/2J background were obtained from the Jackson Laboratory (Bar Harbor, Me.; stock #013141) and interbred. Male mice were used for reported experiments. Age at start was approximately 6 months for short-term experiments, approximately 6 weeks for long-term experiments. Dysferlin-null (Dysf-null) mice from the 129T2/SvEmsJ background were previously characterized (Demonbreun et al., 2011; Demonbreun et al., 2014). Age at start was approximately 9 months for long-term experiments. For experiments with Dysf-null and wildtype mice, both females and males (approximately 1:1 ratio) were randomized in treatment groups. […] Dosing was based on weekly weight measurements (1 mg/kg body weight, (Sali et al., 2012)) in 100 μl total PBS volume per dose. […] On injection days, stock solutions stored at −20° C. were diluted into sterile Eppendorf tubes containing sterile phosphate buffered saline (PBS) (#14190; Thermo Fisher, Waltham, Mass.). Puromycin (cat #A1113803, Thermo Scientific, Waltham, Mass.) was administered i.p. as 0.040 μmol/body g, and tissues were snap-frozen 30 minutes after injection. Sterile BD Micro-Fine IV Insulin Syringes (#14-829-1A; Fisher Scientific, Waltham, Mass.) were used to inject the intraperitoneal cavity of non-sedated animals. All animal analyses both during treatment and at endpoint were conducted blinded to treatment groups.
Dosing of metabolic and endocrine biomarkers. Glycogen was quantitated using the Glycogen Assay Kit (#ab65620; Abcam, Cambridge, Mass.) from approximately 25 mg frozen-pulverized whole tissue, following manufacturer's instructions and internal standards for calculating μg/mg values. For measurement of whole-tissue ATP/NAD^+ levels, approximately 25 mg frozen-pulverized tissue was extracted in 10% perchloric acid and neutralized in 0.75 M K2CO3, as previously described (Ramsey et al., 2009). NAD+ and ATP were measured by high-pressure liquid chromatography (HPLC) with Shimadzu LC-20A pump (Shimadzu Scientific Instr Inc, Addison, Ill.) and UV-VIS detector, using a Supelco LC-18-T column (15 cm×[…]; #58970-U; Millipore-Sigma, St Louis, Mo.). […] ATP and NAD^+ eluted as sharp peaks at 3 and 14 minutes, respectively, and were normalized to tissue weight of frozen liver tissue for calculating pmol/mg values. Corticosterone was measured in mouse serum and cortisol was measured in human serum using dedicated ELISA kits (#ADI-900-097, Enzo Life Science, Farmingdale, N.Y.; #K7430-100, BioVision, Milpitas, Calif.) according to manufacturer's instructions and internal standards to calculate ng/ml values. Insulin levels were quantitated in mouse and human serum with species-specific ELISA kits (#10-1247-01 (mouse-specific); #10-1113-01 (human-specific); Mercodia, Uppsala, Sweden), following manufacturer's instructions and internal standards to calculate ng/ml values. Free fatty acids were quantitated using Enzychrom Free Fatty Acid Assay kit (#EFFA-100; BioAssay Systems, Hayward, Calif.), following kit's instructions and standards to calculate μM (serum) and nmol/mg (tissue) values. […]

SMILES: C[C@]12C=CC(=O)C=C1CC[C@@H]1[C@@H]2C(=O)C[C@@]2(C)[C@H]1CC[C@]2(O)C(=O)CO [prednisone, Prednisone]
- serum insulin (daily prednisone 1 mg/kg i.p.): 3.09 ± 0.14 ng/mL
- serum BCAA (daily prednisone): 657 ± 24.2 µM
- serum corticosterone (daily prednisone): 127 ± 5.34 ng/mL
- serum free fatty acids (daily prednisone): 546 ± 13.5 µM
- serum β-hydroxybutyrate (daily prednisone): 476 ± 4.81 µM
- tissue BCAA, diaphragm (daily prednisone): 64 ± 3.09 nmol/mg
- tissue BCAA, heart (daily prednisone): 2.38 ± 0.09 nmol/mg
- tissue BCAA, omental fat (daily prednisone): 28.2 ± 0.99 nmol/mg
- tissue BCAA, quadriceps (daily prednisone): 118 ± 2.74 nmol/mg
- tissue free fatty acids, diaphragm (daily prednisone): 2.07 ± 0.09 nmol/mg
- tissue free fatty acids, heart (daily prednisone): 0.86 ± 0.03 nmol/mg
- tissue free fatty acids, omental fat (daily prednisone): 6.01 ± 0.3 nmol/mg
- tissue free fatty acids, quadriceps (daily prednisone): 4.11 ± 0.11 nmol/mg
- tissue β-hydroxybutyrate, diaphragm (daily prednisone): 28.4 ± 0.93 nmol/mg
- tissue β-hydroxybutyrate, heart (daily prednisone): 24.6 ± 0.88 nmol/mg
- tissue β-hydroxybutyrate, omental fat (daily prednisone): 58.8 ± 2.29 nmol/mg
- tissue β-hydroxybutyrate, quadriceps (daily prednisone): 31.8 ± 0.48 nmol/mg
- serum insulin (weekly prednisone 1 mg/kg i.p.): 1.73 ± 0.07 ng/mL
- serum BCAA (weekly prednisone): 457 ± 14.1 µM
- serum corticosterone (weekly prednisone): 194 ± 5.05 ng/mL
- serum free fatty acids (weekly prednisone): 386 ± 17.3 µM
- serum β-hydroxybutyrate (weekly prednisone): 425 ± 4.92 µM
- tissue BCAA, diaphragm (weekly prednisone): 43.8 ± 0.93 nmol/mg
- tissue BCAA, heart (weekly prednisone): 1.65 ± 0.07 nmol/mg
- tissue BCAA, omental fat (weekly prednisone): 18.1 ± 0.94 nmol/mg
- tissue BCAA, quadriceps (weekly prednisone): 89.6 ± 3.06 nmol/mg
- tissue free fatty acids, diaphragm (weekly prednisone): 1.11 ± 0.07 nmol/mg
- tissue free fatty acids, heart (weekly prednisone): 0.44 ± 0.02 nmol/mg
- tissue free fatty acids, omental fat (weekly prednisone): 4.35 ± 0.07 nmol/mg
- tissue free fatty acids, quadriceps (weekly prednisone): 1.25 ± 0.07 nmol/mg
- tissue β-hydroxybutyrate, diaphragm (weekly prednisone): 17.1 ± 0.77 nmol/mg
- tissue β-hydroxybutyrate, heart (weekly prednisone): 16.5 ± 0.56 nmol/mg
- tissue β-hydroxybutyrate, omental fat (weekly prednisone): 19 ± 0.39 nmol/mg
- tissue β-hydroxybutyrate, quadriceps (weekly prednisone): 16.4 ± 1.48 nmol/mg

From patent US20220062299A1, “USE OF GLUCOCORTICOID STEROIDS IN PREVENTING AND TREATING CONDITIONS OF MUSCLE WASTING, AGING AND METABOLIC DISORDER” (NORTHWESTERN UNIVERSITY, priority 2018, published 2022)
